Measured values reported in patent US4973679A, “Process for oligonucleo tide synthesis using phosphormidite intermediates” (University Patents, Inc., priority 1986, dated 1990).

Assay: Lewis acid (ZnBr2) hydrolysis rates of triarylmethyl groups attached to the 5'-hydroxyl of deoxynucleosides
Format: physicochemical
Conditions: 0.08 M ZnBr2 in nitromethane; tlc, HCl vapors
Procedure: These compounds are listed in Tables IV and V. The 5'-triarylmethyldeoxynucleosides were treated with protic and Lewis acids using carefully controlled conditions. […] The rates are more variable -with protic acids.
The Lewis Acid Hydrolysis Rates of Triarylmethyl Groups
^1 Reaction conditions were 0.08 M ZnBr2 in nitromethane.
Aliquots were removed from the reaction solution, quenched with ammonium
acetate and analyzed visually after tlc and exposure to HCl vapors. Time

Question: With `COc1ccccc1C(OC[C@H]1O[C@@H](n2ccc(NC(=O)c3ccccc3)nc2=O)C[C@@H]1O)(c1ccccc1OC)c1cccc2ccccc12` [R1 = R2 = b; R3 = n; C] as the compound, how does the “t1/2 in ZnBr2” value read?
Answer: The value was 30 s.

Question: Which “t1/2 in ZnBr2” value does the source give for `COc1ccc(C(OC[C@H]2O[C@@H](n3cc(C)c(=O)[nH]c3=O)C[C@@H]2O)(c2ccccc2)c2cccc3ccccc23)cc1` (stereo partly shown) [R1 = n; R2 = c; R3 = a; T] here?
Answer: The value was 60 s.

Question: For `COc1ccccc1C(OC[C@H]1O[C@@H](n2cnc3c(=O)[nH]c(NC(=O)C(C)C)nc32)C[C@@H]1O)(c1ccccc1)c1ccccc1OC` [R1 = R2 = b; R3 = a; G], which “t1/2 in ZnBr2” value is on record?
Answer: Its value is 20 s.

Question: For `COc1ccc(C(OC[C@H]2O[C@@H](n3cnc4c(NC(=O)c5ccccc5)ncnc43)C[C@@H]2O)(c2ccccc2)c2ccc(OC)cc2)cc1` [R1 = R2 = c; R3 = a; A], which “t1/2 in ZnBr2” value is on record?
Answer: Its value is 20 s.

Question: With `Cc1ccc(C(OC[C@H]2O[C@@H](n3cnc4c(NC(=O)c5ccccc5)ncnc43)C[C@@H]2O)(c2ccccc2)c2ccccc2)cc1` [R1 = h; R2 = R3 = a; A] as the compound, how does the “t1/2 in ZnBr2” value read?
Answer: Its value is 45 s.

Question: Which “t1/2 in ZnBr2” value does the source give for `COc1ccc(C(OC[C@H]2O[C@@H](n3cc(C)c(=O)[nH]c3=O)C[C@@H]2O)(c2ccccc2)c2ccc(OC)cc2)cc1` [R1 = R2 = c; R3 = a; T] here?
Answer: Its value is 60 s.

Question: With `COc1ccccc1C(OC[C@H]1O[C@@H](n2cc(C)c(=O)[nH]c2=O)C[C@@H]1O)(c1ccccc1OC)c1cccc2ccccc12` [R1 = R2 = b; R3 = n; T] as the compound, how does the “t1/2 in ZnBr2” value read?
Answer: The value was 30 s.

Question: For `Cc1cn([C@H]2C[C@H](O)[C@@H](COC(c3ccccc3)(c3ccc(F)cc3)c3cccc4ccccc34)O2)c(=O)[nH]c1=O` (stereo partly shown) [R1 = n; R2 = e; R3 = a; T], which “t1/2 in ZnBr2” value is on record?
Answer: The value was 60 s.

Question: With `COc1ccc(C(OC[C@H]2O[C@@H](n3ccc(NC(=O)c4ccccc4)nc3=O)C[C@@H]2O)(c2ccccc2)c2ccc(OC)cc2)cc1` [R1 = R2 = c; R3 = a; C] as the compound, how does the “t1/2 in ZnBr2” value read?
Answer: The value was 45 s.

Question: Which “t1/2 in ZnBr2” value does the source give for `COc1ccc(C(OC[C@H]2O[C@@H](n3cnc4c(=O)[nH]c(NC(=O)C(C)C)nc43)C[C@@H]2O)(c2ccccc2)c2ccc(OC)cc2)cc1` [R1 = R2 = c; R3 = a; G] here?
Answer: The value was 20 s.
